Data from ChEMBL document CHEMBL1147136, “Constituents of Oxandra cf. xylopioides with anti-inflammatory activity” (J Nat Prod, 2007).
Calls of active or inactive are those of the source. No cut-off for these calls is given here.

What was measured:
Mus musculus [1] = test: Reduction of carrageenan-induced paw edema volume in mouse at 125 mg/kg, po after 3 hrs relative to control; format: functional; design: scale not given: the % may be the effect or the level left
RAW264.7 [2] = test: Cytotoxicity against mouse RAW264.7 cells at 100 uM by MTT assay; format: cell-based; conditions: raw264.7, 100 µM
RAW264.7 [3] = test: Effect on IL1-beta production in mouse RAW264.7 cells at 100 uM; format: functional
RAW264.7 [4] = test: Reduction of IL1-beta mRNA synthesis in mouse RAW264.7 cells at 100 uM; format: functional, cell-based
Mus musculus [5] = test: Reduction of carrageenan-induced paw edema volume in mouse at 125 mg/kg, po after 5 hrs relative to control; format: functional; design: scale not given: the % may be the effect or the level left
Mus musculus [6] = test: Reduction of carrageenan-induced paw edema volume in mouse at 125 mg/kg, po after 1 hr relative to control; format: functional; design: scale not given: the % may be the effect or the level left

Row | SMILES | Activity (Mus musculus [1]) [%] | Activity (RAW264.7 [2]) | Activity (RAW264.7 [3]) [%] | Activity (RAW264.7 [4]) | Activity (Mus musculus [5]) [%] | Activity (Mus musculus [6]) [%]
1 | COc1cc(C)c(OC)c(O)c1C(C)C [ISOESPINTANOL] | 43 | Not Active | 72 | Active | – | –
2 | CC(C)[C@@]1(C)CCC([C@H]2CC[C@@]3(C)[C@@H]4CC[C@H]5C(C)(C)[C@@H](O)CC[C@@]56C[C@@]46CC[C@]23C)CO1 (stereo partly drawn) [BERENJENOL] | 64 | Not Active | – | – | 51 | 44
